# Results: ChEMBL document CHEMBL5331074, “Design and synthesis of new adamantyl derivatives as promising antiproliferative agents” (Eur J Med Chem, 2023)
# pIC50: −log10 of the molar value. The source made the active and inactive calls. The rule behind the calls is not given here.
# Legend:
# [1] = biological target: Ectonucleotide pyrophosphatase/phosphodiesterase family member 1 (Homo sapiens, UniProt P22413); test: Inhibition of human NPP1 expressed in COS-7 cells using pNP-TMP as substrate preincubated for 10 mins followed by substrate addition and measured after 35 mins by microplate reader analysis; assay type: cell-based
# Sequence of Ectonucleotide pyrophosphatase/phosphodiesterase family member 1 (P22413 whole entry): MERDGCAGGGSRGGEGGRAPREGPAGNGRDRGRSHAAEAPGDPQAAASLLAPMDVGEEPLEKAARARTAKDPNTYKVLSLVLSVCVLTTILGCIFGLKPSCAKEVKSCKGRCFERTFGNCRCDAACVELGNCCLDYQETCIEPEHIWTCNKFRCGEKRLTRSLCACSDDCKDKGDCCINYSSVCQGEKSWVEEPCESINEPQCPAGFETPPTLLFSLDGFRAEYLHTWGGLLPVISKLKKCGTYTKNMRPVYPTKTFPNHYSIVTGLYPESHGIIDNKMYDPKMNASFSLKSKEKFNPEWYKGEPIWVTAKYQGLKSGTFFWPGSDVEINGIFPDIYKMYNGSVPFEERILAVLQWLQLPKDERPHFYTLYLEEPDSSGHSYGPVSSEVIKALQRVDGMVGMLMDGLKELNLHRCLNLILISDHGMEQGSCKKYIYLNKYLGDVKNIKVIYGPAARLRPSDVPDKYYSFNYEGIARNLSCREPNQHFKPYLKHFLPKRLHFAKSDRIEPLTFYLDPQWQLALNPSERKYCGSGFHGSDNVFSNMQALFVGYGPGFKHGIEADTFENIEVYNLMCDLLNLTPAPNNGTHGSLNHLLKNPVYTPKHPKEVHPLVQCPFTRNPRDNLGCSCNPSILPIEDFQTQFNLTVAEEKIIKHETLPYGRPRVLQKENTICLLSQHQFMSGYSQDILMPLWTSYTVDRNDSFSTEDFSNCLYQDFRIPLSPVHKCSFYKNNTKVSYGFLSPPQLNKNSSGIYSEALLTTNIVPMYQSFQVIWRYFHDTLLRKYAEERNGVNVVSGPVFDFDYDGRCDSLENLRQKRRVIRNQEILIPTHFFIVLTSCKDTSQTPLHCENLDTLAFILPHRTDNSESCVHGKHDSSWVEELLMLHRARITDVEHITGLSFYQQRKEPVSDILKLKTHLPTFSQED
# [2] = biological target: Ectonucleotide pyrophosphatase/phosphodiesterase family member 3 (Homo sapiens, UniProt O14638); test: Inhibition of human NPP3 expressed in COS-7 cells using pNP-TMP as substrate preincubated for 10 mins followed by substrate addition and measured after 35 mins by microplate reader analysis; assay type: cell-based
# Sequence of Ectonucleotide pyrophosphatase/phosphodiesterase family member 3 (O14638 whole entry): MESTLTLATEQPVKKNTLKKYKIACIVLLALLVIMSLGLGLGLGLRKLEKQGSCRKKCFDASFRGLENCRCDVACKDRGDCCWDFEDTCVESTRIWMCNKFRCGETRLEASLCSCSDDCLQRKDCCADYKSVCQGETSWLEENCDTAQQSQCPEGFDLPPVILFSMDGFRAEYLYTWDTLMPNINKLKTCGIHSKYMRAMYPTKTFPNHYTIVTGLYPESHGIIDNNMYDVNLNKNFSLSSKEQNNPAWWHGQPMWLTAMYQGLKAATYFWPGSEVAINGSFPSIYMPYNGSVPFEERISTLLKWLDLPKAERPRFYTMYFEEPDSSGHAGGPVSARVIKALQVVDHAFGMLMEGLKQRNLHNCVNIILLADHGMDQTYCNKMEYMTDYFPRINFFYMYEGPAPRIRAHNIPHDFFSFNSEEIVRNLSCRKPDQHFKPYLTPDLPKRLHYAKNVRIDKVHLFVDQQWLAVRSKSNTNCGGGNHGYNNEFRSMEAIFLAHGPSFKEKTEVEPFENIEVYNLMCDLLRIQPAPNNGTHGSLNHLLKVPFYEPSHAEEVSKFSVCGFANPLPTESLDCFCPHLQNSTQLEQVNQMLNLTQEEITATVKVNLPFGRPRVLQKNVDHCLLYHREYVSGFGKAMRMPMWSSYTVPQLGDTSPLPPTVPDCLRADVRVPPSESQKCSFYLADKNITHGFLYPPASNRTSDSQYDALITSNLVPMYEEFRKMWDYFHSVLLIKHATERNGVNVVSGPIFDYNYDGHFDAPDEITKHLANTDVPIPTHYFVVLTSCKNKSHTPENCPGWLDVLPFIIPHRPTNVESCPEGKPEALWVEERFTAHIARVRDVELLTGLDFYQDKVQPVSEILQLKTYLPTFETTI
# HT-29 [3] = test: Cytotoxicity against human HT-29 assessed as cell growth inhibition; assay type: functional, cell-based
# HT-29 [4] = test: Cytotoxicity against human HT-29 assessed as mean growth inhibition; assay type: functional
# HL-60(TB) = test: Cytotoxicity against human HL-60(TB) cells assessed as cell growth inhibition; assay type: functional, cell-based
# K562 = test: Cytotoxicity against human K562 cells assessed as cell growth inhibition; assay type: functional, cell-based
# RPMI-8226 = test: Cytotoxicity against human RPMI-8226 cells assessed as cell growth inhibition; assay type: functional, cell-based
# SR = test: Cytotoxicity against human SR cells assessed as cell growth inhibition; assay type: functional, cell-based
# A549 = test: Cytotoxicity against human A549 cells assessed as cell growth inhibition; assay type: functional, cell-based
# HOP-62 = test: Cytotoxicity against human HOP-62 cells assessed as cell growth inhibition; assay type: functional, cell-based
# HOP-92 = test: Cytotoxicity against human HOP-92 cells assessed as cell growth inhibition; assay type: functional, cell-based
# NCI-H226 = test: Cytotoxicity against human NCI-H226 cells assessed as cell growth inhibition; assay type: functional, cell-based
# NCI-H23 = test: Cytotoxicity against human NCI-H23 cells assessed as cell growth inhibition; assay type: functional, cell-based
# NCI-H322M = test: Cytotoxicity against human NCI-H322M cells assessed as cell growth inhibition; assay type: functional, cell-based
# NCI-H460 = test: Cytotoxicity against human NCI-H460 cells assessed as cell growth inhibition; assay type: functional, cell-based
# NCI-H522 = test: Cytotoxicity against human NCI-H522 cells assessed as cell growth inhibition; assay type: functional, cell-based
# COLO 205 = test: Cytotoxicity against human COLO 205 cells assessed as cell growth inhibition; assay type: functional, cell-based
# HCC 2998 = test: Cytotoxicity against human HCC 2998 cells assessed as cell growth inhibition; assay type: functional, cell-based
# HCT-116 = test: Cytotoxicity against human HCT-116 cells assessed as cell growth inhibition; assay type: functional, cell-based
# HCT-15 = test: Cytotoxicity against human HCT-15 cells assessed as cell growth inhibition; assay type: functional, cell-based
# HT-29 [5] = test: Cytotoxicity against human HT-29 cells assessed as cell growth inhibition; assay type: functional, cell-based
# KM12 = test: Cytotoxicity against human KM12 cells assessed as cell growth inhibition; assay type: functional, cell-based
# SW-620 = test: Cytotoxicity against human SW620 cells assessed as cell growth inhibition; assay type: functional, cell-based
# SF-295 = test: Cytotoxicity against human SF-295 cells assessed as cell growth inhibition; assay type: functional, cell-based
# SF-539 = test: Cytotoxicity against human SF-539 cells assessed as cell growth inhibition; assay type: functional, cell-based
# SNB-19 = test: Cytotoxicity against human SNB-19 cells assessed as cell growth inhibition; assay type: functional, cell-based
# SNB-75 = test: Cytotoxicity against human SNB-75 cells assessed as cell growth inhibition; assay type: functional, cell-based
# U-251 = test: Cytotoxicity against human U-251 cells assessed as cell growth inhibition; assay type: functional, cell-based
# LOX IMVI = test: Cytotoxicity against human LOX IMVI cells assessed as cell growth inhibition; assay type: functional, cell-based
# Malme-3M = test: Cytotoxicity against human Malme-3M cells assessed as cell growth inhibition; assay type: functional, cell-based
# M14 = test: Cytotoxicity against human M14 cells assessed as cell growth inhibition; assay type: functional, cell-based
# MDA-MB-435 = test: Cytotoxicity against human MDA-MB-435 cells assessed as cell growth inhibition; assay type: functional, cell-based
# SK-MEL-2 = test: Cytotoxicity against human SK-MEL-2 cells assessed as cell growth inhibition; assay type: functional, cell-based
# SK-MEL-28 = test: Cytotoxicity against human SK-MEL-28 cells assessed as cell growth inhibition; assay type: functional, cell-based
# SK-MEL-5 = test: Cytotoxicity against human SK-MEL-5 cells assessed as cell growth inhibition; assay type: functional, cell-based
# UACC-257 = test: Cytotoxicity against human UACC-257 cells assessed as cell growth inhibition; assay type: functional, cell-based
# UACC-62 = test: Cytotoxicity against human UACC-62 cells assessed as cell growth inhibition; assay type: functional, cell-based
# IGROV-1 = test: Cytotoxicity against human IGROV-1 cells assessed as cell growth inhibition; assay type: functional, cell-based
# OVCAR-4 = test: Cytotoxicity against human OVCAR-4 cells assessed as cell growth inhibition; assay type: functional, cell-based
# OVCAR-5 = test: Cytotoxicity against human OVCAR-5 cells assessed as cell growth inhibition; assay type: functional, cell-based
# OVCAR-8 = test: Cytotoxicity against human OVCAR-8 cells assessed as cell growth inhibition; assay type: functional, cell-based
# NCI/ADR-RES = test: Cytotoxicity against human NCI/ADR-RES cells assessed as cell growth inhibition; assay type: functional, cell-based
# SK-OV-3 = test: Cytotoxicity against human SK-OV-3 cells assessed as cell growth inhibition; assay type: functional, cell-based
# 786-0 = test: Cytotoxicity against human 786-0 cells assessed as cell growth inhibition; assay type: functional, cell-based
# A498 = test: Cytotoxicity against human A498 cells assessed as cell growth inhibition; assay type: functional, cell-based
# ACHN = test: Cytotoxicity against human ACHN cells assessed as cell growth inhibition; assay type: functional, cell-based
# RXF 393 = test: Cytotoxicity against human RXF 393 cells assessed as cell growth inhibition; assay type: functional, cell-based
# SN12C = test: Cytotoxicity against human SN12C cells assessed as cell growth inhibition; assay type: functional, cell-based
# TK-10 = test: Cytotoxicity against human TK-10 cells assessed as cell growth inhibition; assay type: functional, cell-based
# UO-31 = test: Cytotoxicity against human UO-31 cells assessed as cell growth inhibition; assay type: functional, cell-based
# PC-3 = test: Cytotoxicity against human PC-3 cells assessed as cell growth inhibition; assay type: functional, cell-based
# DU-145 = test: Cytotoxicity against human DU-145 cells assessed as cell growth inhibition; assay type: functional, cell-based
# MCF7 = test: Cytotoxicity against human MCF7 cells assessed as cell growth inhibition; assay type: functional, cell-based
# MDA-MB-231 = test: Cytotoxicity against human MDA-MB-231 cells assessed as cell growth inhibition; assay type: functional, cell-based
# Hs-578T = test: Cytotoxicity against human Hs-578T cells assessed as cell growth inhibition; assay type: functional, cell-based
# BT-549 = test: Cytotoxicity against human BT-549 cells assessed as cell growth inhibition; assay type: functional, cell-based
# T47D = test: Cytotoxicity against human T47D cells assessed as cell growth inhibition; assay type: functional, cell-based
# MDA-MB-468 = test: Cytotoxicity against human MDA-MB-468 cells assessed as cell growth inhibition; assay type: functional, cell-based
# [6] = Cytotoxicity against human hTERT-HME1 cells assessed as cell growth inhibition; assay type: toxicity, cell-based
# [7] = Selectivity index, ratio of IC50 for cytotoxicity against human hTERT-HME1 cells to IC50 for cytotoxicity against human BT-549 cells
# Autotaxin = Autotaxin (Homo sapiens, UniProt Q13822); test: Inhibition of human NPP2 expressed in COS-7 cells using pNP-TMP as substrate preincubated for 10 mins followed by substrate addition and measured after 35 mins by microplate reader analysis; assay type: cell-based
# Carbonic anhydrase 9 = Carbonic anhydrase 9 (Homo sapiens, UniProt Q16790)
# Description: Inhibition of Carbonic anhydrase 9 (unknown origin) using p-nitrophenyl acetate as substrate preincubated for 10 mins followed by substrate addition and measured after 30 mins by microplate reader method
smiles,measurement,setting,value
O=C(Nc1ccc(OS(=O)(=O)c2ccc(F)cc2)cc1)C12CC3CC(CC(C3)C1)C2,pIC50,[1],5.95
same,pIC50,[2],6.13
same,inhibition,HT-29 [3],Active
same,inhibition (INH),HT-29 [4],63.5%
same,pIC50,HL-60(TB),5.57
same,pIC50,K562,6.24
same,pIC50,RPMI-8226,5.67
same,pIC50,SR,5.44
same,pIC50,A549,5.64
same,pIC50,HOP-62,4.95
same,pIC50,HOP-92,5.97
same,pIC50,NCI-H226,4.72
same,pIC50,NCI-H23,5.11
same,pIC50,NCI-H322M,5.26
same,pIC50,NCI-H460,5.64
same,pIC50,NCI-H522,5.47
same,pIC50,COLO 205,6.24
same,pIC50,HCC 2998,5.10
same,pIC50,HCT-116,6.20
same,pIC50,HCT-15,6.38
same,pIC50,HT-29 [5],6.70
same,pIC50,KM12,6.14
same,pIC50,SW-620,6.39
same,pIC50,SF-295,5.74
same,pIC50,SF-539,6.12
same,pIC50,SNB-19,4.80
same,pIC50,SNB-75,5.71
same,pIC50,U-251,4.71
same,pIC50,LOX IMVI,5.12
same,pIC50,Malme-3M,5.39
same,pIC50,M14,5.22
same,pIC50,MDA-MB-435,5.11
same,pIC50,SK-MEL-2,4.98
same,pIC50,SK-MEL-28,4.54
same,pIC50,SK-MEL-5,5.44
same,pIC50,UACC-257,5.47
same,pIC50,UACC-62,5.50
same,pIC50,IGROV-1,4.98
same,pIC50,OVCAR-4,5.79
same,pIC50,OVCAR-5,4.54
same,pIC50,OVCAR-8,4.89
same,pIC50,NCI/ADR-RES,6.03
same,pIC50,SK-OV-3,5.11
same,pIC50,786-0,5.29
same,pIC50,A498,6.55
same,pIC50,ACHN,4.80
same,pIC50,RXF 393,5.32
same,pIC50,SN12C,4.72
same,pIC50,TK-10,4.69
same,pIC50,UO-31,5.46
same,pIC50,PC-3,6.31
same,pIC50,DU-145,4.97
same,pIC50,MCF7,6.23
same,pIC50,MDA-MB-231,5.73
same,pIC50,Hs-578T,5.64
same,pIC50,BT-549,5.37
same,pIC50,T47D,6.08
same,pIC50,MDA-MB-468,6.00
same,pIC50,[6],< 4.30
same,Ratio IC50,[7],11.7
same,pIC50,Autotaxin,5.97
same,pIC50,Carbonic anhydrase 9,6.48
